Laboratory results reported in publication PMC9873984, “Membrane cholesterol regulates inhibition and substrate transport by the glycine transporter, GlyT2” (Life Science Alliance, 2023).
Residue numbers refer to the chain shown, from its start.

Experiments:
GlyT2 Y430L mutant = molecular target: T1, GlyT2 Y430L mutant (Homo sapiens, UniProt Q9Y345, Y430L); experiment: Inhibitor concentration–responses on glycine transport currents, two-electrode voltage clamp; type: cell-based; parameters: expressed in transfected cells; host or cells: Xenopus laevis oocytes injected with mutant RNA (pOTV vector); conditions: for IC50: Y430L GlyT2 in Xenopus laevis oocytes
T1 sequence (Q9Y345 1-797 Y430L): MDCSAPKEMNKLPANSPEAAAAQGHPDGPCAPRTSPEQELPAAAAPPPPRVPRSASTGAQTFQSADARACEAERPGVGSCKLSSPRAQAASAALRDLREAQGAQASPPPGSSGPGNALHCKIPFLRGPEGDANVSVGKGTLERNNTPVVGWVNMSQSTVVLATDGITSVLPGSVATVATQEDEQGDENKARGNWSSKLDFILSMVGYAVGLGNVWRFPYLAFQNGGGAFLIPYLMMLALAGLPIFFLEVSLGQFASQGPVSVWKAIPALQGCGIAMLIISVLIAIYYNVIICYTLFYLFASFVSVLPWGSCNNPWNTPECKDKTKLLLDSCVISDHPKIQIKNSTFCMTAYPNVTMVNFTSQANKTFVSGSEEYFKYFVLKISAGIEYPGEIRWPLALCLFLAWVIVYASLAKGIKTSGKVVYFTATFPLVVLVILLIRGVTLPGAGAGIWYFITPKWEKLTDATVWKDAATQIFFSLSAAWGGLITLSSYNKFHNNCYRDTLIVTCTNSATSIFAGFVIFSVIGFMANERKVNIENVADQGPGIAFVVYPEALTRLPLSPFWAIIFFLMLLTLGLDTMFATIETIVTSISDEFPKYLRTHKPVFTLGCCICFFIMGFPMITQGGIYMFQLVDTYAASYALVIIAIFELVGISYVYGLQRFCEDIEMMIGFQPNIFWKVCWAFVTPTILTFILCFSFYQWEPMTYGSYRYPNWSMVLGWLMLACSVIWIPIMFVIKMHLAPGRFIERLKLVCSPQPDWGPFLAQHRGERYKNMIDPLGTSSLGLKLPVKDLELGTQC
Protocol: (§1) Because of the slowly reversible nature of the compounds tested, inhibitor concentration–responses were performed cumulatively. An EC50 concentration of glycine was applied until a stable transport current was reached. EC50 concentrations of glycine were used to produce reliable currents for each transporter, and as the inhibitors are non-competitive, application of varying glycine concentrations is unlikely to affect their activity. Increasing concentrations of inhibitors were co-applied with glycine with each concentration producing a distinct plateau before the subsequent concentration was applied. Inhibitor concentration–responses were limited to a maximum concentration of 3 µM to mitigate the risk of changes to the free drug concentration because of micelle formation. Currents after the plateau of each inhibitor concentration were normalized to the current produced by application of glycine alone and fit using the method of least squares: Y=Bottom+(Top−Bottom)/(1+10^[X−LogIC50]), where X is log [inhibitor], Y is current normalized to glycine in the absence of inhibitor, and Top and Bottom are the maximal and minimal plateaus, respectively. The method of least squares was constrained to have the bottom value >0 and the hill slope as −1, enabling the calculation of IC50 values and the extent of inhibition produced by the maximal concentration applied.
(§2) IC50 values are presented as the mean and 95% confidence interval, whereas inhibition values are presented as the mean ± SEM. Data sets are n ≥ 5 from two batches of oocytes.

GlyT2 Y430F mutant = molecular target: T2, GlyT2 Y430F mutant (Homo sapiens, UniProt Q9Y345, Y430F); experiment: as above; type: cell-based; parameters: expressed in transfected cells; host or cells: Xenopus laevis oocytes injected with mutant RNA (pOTV vector); conditions: for IC50: Y430F GlyT2 in Xenopus laevis oocytes
T2 sequence (Q9Y345 1-797 Y430F): T1 sequence (Q9Y345 1-797 Y430L) with L430F
Protocol: as §1, §2

Row | SMILES | IC50 (GlyT2 Y430L mutant; 95% CI could not be fit) [nM] | Inhibition at 1 µM (column head 3 μM, footnote b) (GlyT2 Y430L mutant; Y430L, 1 µM) | IC50 (GlyT2 Y430F mutant) [nM] | Inhibition at 1 µM (column head 3 μM, footnote b) (GlyT2 Y430F mutant; Y430F, 1 µM) | IC50 (GlyT2 Y430L mutant) [nM] | Inhibition at 3 μM (GlyT2 Y430L mutant; Y430L) [%] | Inhibition at 3 μM (GlyT2 Y430F mutant; Y430F) [%] | IC50 (GlyT2 Y430L mutant; listed as OLLys) [nM] | Reduction of potency compared with WT (GlyT2 Y430L mutant; Y430L vs WT)
1 | CCCCCCCC/C=C\CCCCCCCC(=O)O[C@H](CC(=O)[O-])C[N+](C)(C)C [Oleoyl-L-Carnitine, oleoyl-L-carnitine] | 1100 | 49.6 ± 2.9^b % | 190 | 71.0 ± 3.3^*b % | – | – | – | – | –
2 | CCCCCCCC/C=C\CCCCCCCC(=O)N[C@@H](Cc1c[nH]c2ccccc12)C(=O)O [Oleoyl-L-Tryptophan, oleoyl-L-tryptophan] | – | – | 125 | – | 57 | 83.5 ± 3.2 | 84.5 ± 3.6 | – | –
3 | CCCCCCCC/C=C\CCCCCCCC(=O)N[C@@H](CCCCN)C(=O)O [Oleoyl-L-Lysine, oleoyl-L-lysine] | – | – | 123 | – | 863 | 69.7 ± 4.7 | 92.9 ± 1.7 | 860 | fourfold
4 | CCCCCCCC/C=C\CCCCCCCC(=O)N[C@@H](CC(C)C)C(=O)O [Oleoyl-L-Leucine, oleoyl-L-leucine] | – | – | 203 | – | 375 | 63.8 ± 2.6 | 76.7 ± 2.8 | – | –
